In patent US12194050B2, “Thiadiazine derivatives” (RICHTER GEDEON NYRT., priority 2018, dated 2025):

Assays:
human α7 nAchR = human α7 nAchR (Homo sapiens (Human), UniProt P36544); test: Human α7 nicotinic acetylcholine receptor [Ca2+]i assay (PAM, Ca2+ fluorometry); assay type: cell-based; details: Flp-In 293 cells expressing human α7 nAchR and human RIC-3; in presence of saturating agonist (mostly PNU-282987, 1 μM)
Method: Biological Activity Human α7 Nicotinic Acetylcholine Receptor [Ca^2+]i Assay
Cells: Flp-In 293 cells stably expressing human α7 nAchR and human RIC-3 (α7 cells, generated in house.)
Materials: 96-well plates coated with PDL (Falcon), culture medium, assay buffer, DMSO, FLIPR Calcium 5 kit (Molecular Devices), probenecid, agonist and PAM test compounds.
Brief Description of the Method (Ca^2+ Fluorometry)
α7 cells stably expressing human α7 nAchR were cultured in the medium detailed above, and were split twice a week. For the fluorometric measurements of cytosolic Ca^2+ ion concentration ([Ca^2+]i) cells were seeded in 96-well microplates at a density of 60000 cells/well and maintained overnight in a tissue culture incubator at 37° C. under an atmosphere of 95% air/5% CO2. The plating medium was identical with the culture medium. 50 μl of the growth medium was aspirated with a cell washer (BioTek Elx405UCVWS). Then 50 μl/well Calcium 5 kit diluted 2-fold in assay buffer was added manually using an 8-channel pipette. After an incubation period (20 minutes, 37° C.) 50 μl/well assay buffer containing vehicle (DMSO, 4% added) or reference α7 PAMs (4×of the final concentration) were added manually and the cells were incubated for an additional 10 minutes at 37° C. Baseline and agonist-evoked [Ca2+]i-changes were monitored with FlexStation II (Molecular Devices, Sunnyvale, Calif.), a plate reader fluorometer with integrated 8-channel fluid addition capability. Fluorescence measurements were carried out at 37° C. The dye was excited at 485 nm, emission was sampled at 525 nm at 1.4-s intervals. Baseline was recorded for 20 seconds followed by agonist stimulation. 50 μl 4× concentrated agonist solution was added to the cells using the pipettor of FlexStation II and fluorescence was monitored for an additional 40 seconds. Final DMSO concentration was 1% for all treatments. To achieve this, a series of DMSO stock solutions were prepared from all test compounds. These stocks were stored under 0° C. and were further diluted in assay buffer to obtain the desired final concentration immediately before the measurement. Agonist and PAM concentration-response studies were conducted in the presence of saturating concentrations of PAMs (mostly PNU-120596, 5 μM) and agonists (mostly PNU-282987, 1 μM), respectively. Results were expressed as ΔF/F values using SoftMax Pro software (Molecular Devices), where F was the resting fluorescence preceding agonist application and ΔF was the increase in fluorescence at a given time (ΔF=maximum fluorescence intensity values after stimulation minus average fluorescence intensity values before stimulation). In all experiments, all treatments were measured in multiple wells in parallel, and the mean ΔF/F values were used for analysis.

Male NMRI mice = test: Place recognition test (Y-maze), reversal of scopolamine-induced amnesia; assay type: in vivo; details: scopolamine 1 mg/kg i.p.
Method: In Vivo Pharmacology (Place Recognition Test)
Animals: Male NMRI mice (Toxicoop, Hungary)
Substances: Scopolamine was dissolved in saline and administered at 1 mg/kg dose i.p. Test compounds were administered 30 minutes before the acquisition trial (T1) and scopolamine after the acquisition trial at a volume of 0.1 ml/10 g.
Procedure: The task was carried out in a transparent plexiglass Y-maze (each arm has a length of 40 cm, an inner width of 11 cm and a height of 30 cm). Numerous visual cues were placed around the arms and were kept constant during the experiment. The test consisted of two trials (T1 and T2) separated by an intertrial interval of 30 minutes. Mice were placed in the starting arm of the maze at the beginning of each trial. In T1, one of the symmetric arms of the maze was closed (it will be novel in T2) and the animals were allowed to explore the maze for 5 minutes (acquisition phase). In T2, mice had free access to all three arms for 2 minutes (retrieval phase). The time spent with exploration in the novel and familiar arms during T2 was measured. Differences between the exploration times spent in the familiar vs. novel arms of the maze for each group were evaluated by MANOVA, followed by Duncan post hoc test.
Significant differences (^+p<0.05; ^++p<0.01; ^+++p<0.001) were observed between the exploration times spent in the novel vs. familiar arms of the maze.

human α7 nAchR, sequence (P36544 23-502): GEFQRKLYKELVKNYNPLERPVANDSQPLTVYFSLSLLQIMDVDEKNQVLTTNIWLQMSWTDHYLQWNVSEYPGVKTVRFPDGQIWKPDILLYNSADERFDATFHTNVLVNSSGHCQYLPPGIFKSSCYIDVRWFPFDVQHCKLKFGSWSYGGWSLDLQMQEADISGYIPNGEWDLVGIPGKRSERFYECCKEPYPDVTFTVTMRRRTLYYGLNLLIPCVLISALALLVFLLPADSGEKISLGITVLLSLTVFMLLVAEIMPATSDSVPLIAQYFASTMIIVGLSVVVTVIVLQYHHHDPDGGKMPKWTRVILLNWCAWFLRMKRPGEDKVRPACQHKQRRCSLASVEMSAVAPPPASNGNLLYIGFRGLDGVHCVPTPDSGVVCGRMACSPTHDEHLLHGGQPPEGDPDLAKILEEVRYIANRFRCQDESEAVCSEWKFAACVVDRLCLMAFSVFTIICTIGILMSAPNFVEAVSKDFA

| Structure (SMILES) | EC50 (human α7 nAchR) [nM] | reversal of the scopolamine-induced amnesia; significance of exploration time novel vs. familiar arm (Male NMRI mice; 1 mg/kg i.p.) | reversal of the scopolamine-induced amnesia; significance of exploration time novel vs. familiar arm (Male NMRI mice; 3 mg/kg i.p.) | reversal of the scopolamine-induced amnesia; significance of exploration time novel vs. familiar arm (Male NMRI mice; 10 mg/kg i.p.) |
| --- | --- | --- | --- | --- |
| Cc1cccc(NC(=O)C2=CC(c3ccc4c(c3)c(C)nn4C)=NS(=O)(=O)N2C)c1 [Example 21] | 230 | ++ (++p < 0.01) | +++ (+++p < 0.001) | ++ (++p < 0.01) |
| CCN1C(C(=O)Nc2cccc(C)c2)=CC(c2ccc(OC)c(OC)c2)=NS1(=O)=O [Example 29] | 340 | +++ (+++p < 0.001) | ++ (++p < 0.01) | +++ (+++p < 0.001) |
| CCN1C(C(=O)Nc2cccc(C(F)(F)F)n2)=CC(c2ccc(OC)c(OC)c2)=NS1(=O)=O [Example 33] | 50 | +++ (+++p < 0.001) | ++ (++p < 0.01) | ++ (++p < 0.01) |
| CCN1C(C(=O)Nc2cccc(OC)c2)=CC(c2ccc(OC)c(C(F)(F)F)c2)=NS1(=O)=O [Example 37] | 45 | +++ (+++p < 0.001) | ++ (++p < 0.01) | +++ (+++p < 0.001) |
| CCCN1C(C(=O)Nc2cccc(C(F)(F)F)c2)=CC(c2ccc(OC)c(OC)c2)=NS1(=O)=O [Example 94] | 340 | +++ (+++p < 0.001) | +++ (+++p < 0.001) | +++ (+++p < 0.001) |
| COCCN1C(C(=O)Nc2cccc(F)n2)=CC(C2CCC(F)(F)CC2)=NS1(=O)=O [Example 131] | 1800 |  |  |  |
| O=C(Nc1cccc(F)n1)C1=CC(C2CCC(F)(F)CC2)=NS(=O)(=O)N1CC1CC1 [Example 135] | 120 |  |  |  |
| CC(C)N1C(C(=O)Nc2cncc(F)n2)=CC([C@H]2CC[C@H](C(F)(F)F)CC2)=NS1(=O)=O [Example 138] | 140 |  |  |  |
| O=C(Nc1cncc(F)n1)C1=CC([C@H]2CC[C@H](C(F)(F)F)CC2)=NS(=O)(=O)N1CC1CC1 [Example 139] | 150 |  |  |  |

The next lines start with results.

| EC50 (human α7 nAchR) [nM] | Structure (SMILES) | reversal of the scopolamine-induced amnesia; significance of exploration time novel vs. familiar arm (Male NMRI mice; 1 mg/kg i.p.) | reversal of the scopolamine-induced amnesia; significance of exploration time novel vs. familiar arm (Male NMRI mice; 3 mg/kg i.p.) | reversal of the scopolamine-induced amnesia; significance of exploration time novel vs. familiar arm (Male NMRI mice; 10 mg/kg i.p.) |
| --- | --- | --- | --- | --- |
| 430 | COc1ccc(C2=NS(=O)(=O)N(C)C(C(=O)Nc3cccc(C)c3)=C2)cc1OC [Example 1, 5-(3,4-dimethoxyphenyl)-2-methyl-N-(3-methylphenyl)-1,1-dioxo-2H-1λ^6,2,6-thiadiazine-3-carboxamide] | ++ (++p < 0.01) | +++ (+++p < 0.001) | +++ (+++p < 0.001) |
| 35 | COc1ccc(C2=NS(=O)(=O)N(C(C)C)C(C(=O)Nc3cccc(C(F)(F)F)n3)=C2)cc1OC [Example 91] | +++ (+++p < 0.001) | + (+p < 0.05) | +++ (+++p < 0.001) |
| 35 | O=C(Nc1cccc(F)n1)C1=CC([C@H]2CC[C@H](C(F)(F)F)CC2)=NS(=O)(=O)N1CC1CC1 [Example 132] |  |  |  |
| 230 | O=C(Nc1ccc(F)cn1)C1=CC([C@H]2CC[C@H](C(F)(F)F)CC2)=NS(=O)(=O)N1CC1CC1 [Example 133] |  |  |  |
| 80 | O=C(Nc1cccc(C(F)(F)F)n1)C1=CC(C2CCC(F)(F)CC2)=NS(=O)(=O)N1CC1CC1 [Example 134] |  |  |  |
| 150 | CC(C)N1C(C(=O)Nc2ccnc(C(F)(F)F)n2)=CC([C@H]2CC[C@H](C(F)(F)F)CC2)=NS1(=O)=O [Example 136] |  |  |  |
| 130 | O=C(Nc1ccnc(C(F)(F)F)n1)C1=CC([C@H]2CC[C@H](C(F)(F)F)CC2)=NS(=O)(=O)N1CC1CC1 [Example 137] |  |  |  |
